Measurements from ChEMBL document CHEMBL1828532, “Synthesis and antitubercular evaluation of novel dibenzo[b,d]furan and 9-methyl-9H-carbazole derived hexahydro-2H-pyrano[3,2-c]quinolines via Povarov reaction” (Eur J Med Chem, 2011).
Values after ≈ are worked out from the molar mass of the structure shown.

Key:
[1] = Lipophilicity, log P of the compound; assay type: physicochemical; conditions: octanol/water
[2] = tested on: Mycobacterium tuberculosis; assay: microbe, parasite or virus in culture; conditions: H37Rv, 672 h
Description: Antimycobacterial activity against Mycobacterium tuberculosis H37Rv after 28 days by agar dilution method

Row | Structure (SMILES) | logP [1] | MIC [2] [µg/mL]
1 | Cc1ccc2c(c1)[C@@H]1OCCC[C@@H]1[C@H](c1ccc3oc4ccccc4c3c1)N2 | 4.42 | 12.5 (≈ 33.8 µM)
2 | Cn1c2ccccc2c2cc([C@H]3Nc4ccc(F)cc4[C@@H]4OCCC[C@H]34)ccc21 | 4.25 | 3.13 (≈ 8.1 µM)
3 | Cn1c2ccccc2c2cc([C@H]3Nc4ccccc4[C@@H]4OCCC[C@H]34)ccc21 (relative stereo) | 4.1 | 12.5 (≈ 33.9 µM)
4 | c1ccc2c(c1)N[C@@H](c1ccc3oc4ccccc4c3c1)[C@H]1CCCO[C@@H]21 (relative stereo) | 3.92 | 25 (≈ 70.3 µM)
5 | c1ccc2c(c1)N[C@H](c1ccc3oc4ccccc4c3c1)[C@H]1CCCO[C@@H]21 (relative stereo) | 3.92 | 25 (≈ 70.3 µM)
6 | Cc1ccc2c(c1)[C@@H]1OCCC[C@@H]1[C@@H](c1ccc3oc4ccccc4c3c1)N2 (relative stereo) | 4.42 | 12.5 (≈ 33.8 µM)
7 | COc1ccc2c(c1)[C@@H]1OCCC[C@@H]1[C@H](c1ccc3oc4ccccc4c3c1)N2 (relative stereo) | 3.81 | 12.5 (≈ 32.4 µM)
8 | COc1ccc2c(c1)[C@@H]1OCCC[C@@H]1[C@@H](c1ccc3oc4ccccc4c3c1)N2 (relative stereo) | 3.81 | 12.5 (≈ 32.4 µM)
9 | Clc1ccc2c(c1)[C@@H]1OCCC[C@@H]1[C@H](c1ccc3oc4ccccc4c3c1)N2 (relative stereo) | 4.49 | 25 (≈ 64.1 µM)
10 | Clc1ccc2c(c1)[C@@H]1OCCC[C@@H]1[C@@H](c1ccc3oc4ccccc4c3c1)N2 (relative stereo) | 4.49 | 6.25 (≈ 16 µM)
11 | Brc1ccc2c(c1)[C@@H]1OCCC[C@@H]1[C@H](c1ccc3oc4ccccc4c3c1)N2 (relative stereo) | 4.76 | 12.5 (≈ 28.8 µM)
12 | Brc1ccc2c(c1)[C@@H]1OCCC[C@@H]1[C@@H](c1ccc3oc4ccccc4c3c1)N2 (relative stereo) | 4.76 | 6.25 (≈ 14.4 µM)
13 | Fc1ccc2c(c1)[C@@H]1OCCC[C@@H]1[C@H](c1ccc3oc4ccccc4c3c1)N2 (relative stereo) | 4.09 | 3.13 (≈ 8.38 µM)
14 | Fc1ccc2c(c1)[C@@H]1OCCC[C@@H]1[C@@H](c1ccc3oc4ccccc4c3c1)N2 (relative stereo) | 4.09 | 3.13 (≈ 8.38 µM)
15 | Cn1c2ccccc2c2cc([C@@H]3Nc4ccccc4[C@@H]4OCCC[C@H]34)ccc21 (relative stereo) | 4.1 | 25 (≈ 67.8 µM)
16 | Cc1ccc2c(c1)[C@@H]1OCCC[C@@H]1[C@H](c1ccc3c(c1)c1ccccc1n3C)N2 (relative stereo) | 4.58 | 25 (≈ 65.4 µM)
17 | Cc1ccc2c(c1)[C@@H]1OCCC[C@@H]1[C@@H](c1ccc3c(c1)c1ccccc1n3C)N2 (relative stereo) | 4.58 | 25 (≈ 65.4 µM)
18 | COc1ccc2c(c1)[C@@H]1OCCC[C@@H]1[C@@H](c1ccc3c(c1)c1ccccc1n3C)N2 (relative stereo) | 3.97 | 25 (≈ 62.7 µM)
19 | Cn1c2ccccc2c2cc([C@@H]3Nc4ccc(Cl)cc4[C@@H]4OCCC[C@H]34)ccc21 (relative stereo) | 4.65 | 12.5 (≈ 31 µM)
20 | Cn1c2ccccc2c2cc([C@H]3Nc4ccc(Cl)cc4[C@@H]4OCCC[C@H]34)ccc21 (relative stereo) | 4.65 | 6.25 (≈ 15.5 µM)
21 | Cn1c2ccccc2c2cc([C@@H]3Nc4ccc(Br)cc4[C@@H]4OCCC[C@H]34)ccc21 (relative stereo) | 4.93 | 25 (≈ 55.9 µM)
22 | Cn1c2ccccc2c2cc([C@H]3Nc4ccc(Br)cc4[C@@H]4OCCC[C@H]34)ccc21 (relative stereo) | 4.93 | 6.25 (≈ 14 µM)
23 | Cn1c2ccccc2c2cc([C@@H]3Nc4ccc(F)cc4[C@@H]4OCCC[C@H]34)ccc21 (relative stereo) | 4.25 | 6.25 (≈ 16.2 µM)
24 | CC[C@@H](CO)NCCN[C@@H](CC)CO [ETHAMBUTOL] | – | 3.13 (≈ 15.3 µM)
25 | NNC(=O)c1ccncc1 [ISONIAZID] | – | 0.1 (≈ 0.729 µM)
26 | CO[C@H]1/C=C/O[C@@]2(C)Oc3c(C)c(O)c4c(O)c(c(/C=N/N5CCN(C)CC5)c(O)c4c3C2=O)NC(=O)/C(C)=C\C=C\[C@H](C)[C@H](O)[C@@H](C)[C@@H](O)[C@@H](C)[C@H](OC(C)=O)[C@@H]1C [RIFAMPIN] | – | 0.2 (≈ 0.243 µM)
